Reference: US20260199323A1, “LIGAND COMPOUNDS FOR E3 UBIQUITIN LIGASE, PROTEIN DEGRADERS DEVELOPED ON BASIS OF LIGAND COMPOUNDS, AND USES THEREOF” (GLUETACS THERAPEUTICS (SHANGHAI) CO., LTD., priority 2021, published 2026)
Where two headings read alike, the source gives them in different places.

Columns and labels:
SW620 = test: CCK-8 tumor cell proliferation, SW620; type: cell-based, Human; conditions: Table 8, designed based on ER inhibitors; 96 h
In short: (§1)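 Viability determined colorimetrically with CCK-8 following compound treatment. Dosing began 24 h post-plating using ten 5-fold dilutions capped at 10 μM; growth-inhibition curves yielded IC50.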

MM.1S = test: CCK-8 tumor cell proliferation, MM.1S; type: cell-based; conditions: for IC50: Homo sapiens, MM1.S
In short: as §1

SU-DHL-6 = test: CCK-8 tumor cell proliferation, SU-DHL-6; type: cell-based, Human; conditions: 72 h
Method: (§2) The tumor cells used herein were cultured in a cell culture medium listed in table 4 at 37° C. in an incubator with 5% CO2. Prior to experimentation, all cells used were correctly identified by STR profiling, and tested negative for mycoplasma through routine screenings.
(§3) IC50 values of the compounds of the present disclosure (including the compounds in Tables 1 and 3, and compounds of examples) were measured using the Meilun Cell Counting Kit-8 kit from Dalian Meilun Biotech Co., Ltd. Assay details are as follows: tumor cells were seeded in a 96-well plate at a density listed in Table 5. After 24 h, 100 μL of the inoculated cells were treated with 0.5 μL of the compounds of the present disclosure (including the compounds in Tables 1 and 3, and compounds of examples) at 10 different successively decreasing concentrations (starting at the highest concentration of 10 μM; 5-fold serial dilutions). After the cells were treated with the compounds of the present disclosure for a period of time, the cell viability detection reagent was added to the culture medium for cell viability assessment according to the instructions provided with the CCK-8 kit. […] The growth inhibition of the compounds of the present disclosure on cells was plotted by Prism Graphpad software, and the IC50 values of the compounds of the present disclosure were calculated therefrom.

T47D = test: CCK-8 tumor cell proliferation, T47D; type: cell-based, Human; conditions: for IC50: Homo sapiens, T47D
Method: as §2, §3

MDA-MB-231 = test: CCK-8 tumor cell proliferation, MDA-MB-231; type: cell-based, Human; set-up: IC50 for inhibiting the proliferation of tumor cells, MDA-MB-231: scale not given here; conditions: Table 8, designed based on ER inhibitors; 96 h
In short: as §1

HCC827 = test: CCK-8 tumor cell proliferation, HCC827; type: cell-based, Human; conditions: Table 8, designed based on ER inhibitors, 96 h
Method: The tumor cells used herein were cultured in a cell culture medium listed in table 4 at 37° C. in an incubator with 5% CO2.
as §3, with “After” for “IC50 values of the compounds of the present disclosure (including the compounds in Tables 1 and 3, and compounds of examples) were measured using the Meilun Cell Counting Kit-8 kit from Dalian Meilun Biotech Co., Ltd. Assay details are as follows: tumor cells were seeded in a 96-well plate at a density listed in Table 5. After”

CCRF-CEM = test: CCK-8 tumor cell proliferation, CCRF-CEM; type: cell-based, Human; set-up: IC50 for inhibiting the proliferation of tumor cells, CCRF-CEM: scale not given here; conditions: for IC50: Homo sapiens, CCRF-CEM
In short: as §1

Hep3B2.7-1 = test: CCK-8 tumor cell proliferation, Hep3B2.7-1; type: cell-based, Human; conditions: for IC50: Homo sapiens
Method: as §2, §3

Kasumi-1 = test: CCK-8 tumor cell proliferation, Kasumi-1; type: cell-based, Human; conditions: for IC50 for inhibiting the proliferation of tumor cells, Kasumi-1: Table 8, designed based on ER inhibitors, 72 h; for IC50: Homo sapiens, Kasumi-1, read-out: IC50 inhibiting proliferation of tumor cells, Kasumi-1
In short: as §1

Mino = test: CCK-8 tumor cell proliferation, Mino; type: cell-based, Human; conditions: 72 h
In short: as §1

MM.1R = test: CCK-8 tumor cell proliferation, MM.1R; type: cell-based; conditions: read-out: IC50 inhibiting proliferation of tumor cells, MM.1R
In short: as §1

Jurkat = test: CCK-8 tumor cell proliferation, Jurkat; type: cell-based, Human; conditions: Homo sapiens, read-out: IC50 inhibiting proliferation of tumor cells, Jurkat
In short: as §1

[1] = Table 8, designed based on ER inhibitors, 72 h
[2] = Table 8, designed based on ER inhibitors
[3] = Table 8, designed based on ER inhibitors, 96 h
[4] = Table 14, designed based on CDK4/6 inhibitors
[5] = Table 22, NTRK inhibitor based, MM.1S, read-out: IC50 inhibiting proliferation of tumor cells, MM.1S
[6] = Table 22, NTRK inhibitor based, read-out: IC50 inhibiting proliferation of tumor cells, T47D
[7] = Table 22, NTRK inhibitor based, read-out: IC50 inhibiting proliferation of tumor cells, CCRF-CEM
[8] = Table 22, NTRK inhibitor based, HEP3B2.7-1, read-out: IC50 inhibiting proliferation of tumor cells, HEP3B2.7-1

## CCC(=C(c1ccc(O)cc1)c1ccc(OCCNCc2ccc3c(c2)CN(C2CCC(=O)NC2=O)C3=O)cc1)c1ccc(O)cc1 (centres unmarked) [GT-03214, 3-(5-(((2-(4-(1,2-bis(4-hydroxyphenyl)but-1-en-1-yl)phenoxy)ethyl)amino)methyl)-1-oxoisoindolin-2-yl)piperidine-2,6-dione]
SW620
  IC50 for inhibiting the proliferation of tumor cells, SW620: A+
MM.1S; [1]
  IC50 for inhibiting the proliferation of tumor cells, MM.1S: A+
SU-DHL-6; [2]
  IC50 for inhibiting the proliferation of tumor cells, SU-DHL-6: A+
T47D; [3]
  IC50 for inhibiting the proliferation of tumor cells, T47D: A+
MDA-MB-231
  IC50 for inhibiting the proliferation of tumor cells, MDA-MB-231: A+
HCC827
  IC50 for inhibiting the proliferation of tumor cells, HCC827: A+
CCRF-CEM; [3]
  IC50 for inhibiting the proliferation of tumor cells, CCRF-CEM: A+
Hep3B2.7-1; [3]
  IC50 for inhibiting the proliferation of tumor cells, Hep3B2.7-1: A+
Kasumi-1
  IC50 for inhibiting the proliferation of tumor cells, Kasumi-1: A+

## CC/C(=C(/c1ccc(O)cc1)c1ccc(OCCN)cc1)c1ccc(O)cc1 [GT-03308, reference compound]
MM.1S; Table 8, designed based on ER inhibitors, 72 h, read-out: IC50 for inhibiting the proliferation of tumor cells, MM.1S
  IC50: > 10 µM
T47D; Table 8, designed based on ER inhibitors, 96 h, read-out: IC50 for inhibiting the proliferation of tumor cells, T47D
  IC50: > 10 µM
HCC827; Homo sapiens, HCC827, read-out: IC50 for inhibiting the proliferation of tumor cells, HCC827
  IC50: > 10 µM
CCRF-CEM; Table 8, designed based on ER inhibitors, 96 h, read-out: IC50 for inhibiting the proliferation of tumor cells, CCRF-CEM
  IC50: > 10 µM
Hep3B2.7-1; Table 8, designed based on ER inhibitors, 96 h, read-out: IC50 for inhibiting the proliferation of tumor cells, Hep3B2.7-1
  IC50: > 10 µM

## CN(C)C(=O)c1cc2cnc(Nc3ccc(N4CCC(N(C)Cc5ccc6c(c5)CN(C5CCC(=O)NC5=O)C6=O)CC4)cn3)nc2n1C1CCCC1 (centres unmarked) [GT-03544, 7-cyclopentyl-2-((5-(4-(((2-(2,6-dioxopiperidin-3-yl)-1-oxoisoindolin-5-yl)methyl)(methyl)amino)piperidin-1-yl)pyridin-2-yl)amino)-N,N-dimethyl-7H-pyrrolo[2,3-d]pyrimidine-6-carboxamide]
SU-DHL-6; [4]
  IC50 for inhibiting the proliferation of tumor cells, SU-DHL-6: A+

## CCC(=C(c1ccc(O)cc1)c1ccc(N2CCN(Cc3ccc4c(c3)CN(C3CCC(=O)NC3=O)C4=O)CC2)cc1)c1ccc(O)cc1 (centres unmarked) [GT-03551, 3-(5-((4-(4-(1,2-bis(4-hydroxyphenyl)but-1-en-1-yl)phenyl)piperazin-1-yl)methyl)-1-oxoisoindolin-2-yl)piperidine-2,6-dione]
SW620
  IC50 for inhibiting the proliferation of tumor cells, SW620: A+
MM.1S; [1]
  IC50 for inhibiting the proliferation of tumor cells, MM.1S: A+
SU-DHL-6; [2]
  IC50 for inhibiting the proliferation of tumor cells, SU-DHL-6: A+
T47D; [3]
  IC50 for inhibiting the proliferation of tumor cells, T47D: A+
HCC827
  IC50 for inhibiting the proliferation of tumor cells, HCC827: A+
CCRF-CEM; [3]
  IC50 for inhibiting the proliferation of tumor cells, CCRF-CEM: A+
Mino; [2]
  IC50 for inhibiting the proliferation of tumor cells, Mino: A+
Kasumi-1
  IC50 for inhibiting the proliferation of tumor cells, Kasumi-1: A+

## O=C1CCC(N2Cc3cc(CN4CCN(c5ccc(C(=C(CCCl)c6ccc(O)cc6)c6ccc(O)cc6)cc5)CC4)ccc3C2=O)C(=O)N1 (centres unmarked) [GT-03638, 3-(5-((4-(4-(4-chloro-1,2-bis(4-hydroxyphenyl)but-1-en-1-yl)phenyl)piperazin-1-yl)methyl)-1-oxoisoindolin-2-yl)piperidine-2,6-dione]
SW620
  IC50 for inhibiting the proliferation of tumor cells, SW620: A+
MM.1S; [1]
  IC50 for inhibiting the proliferation of tumor cells, MM.1S: A+
SU-DHL-6; [2]
  IC50 for inhibiting the proliferation of tumor cells, SU-DHL-6: A+
T47D; [3]
  IC50 for inhibiting the proliferation of tumor cells, T47D: A+
MDA-MB-231
  IC50 for inhibiting the proliferation of tumor cells, MDA-MB-231: A+
HCC827
  IC50 for inhibiting the proliferation of tumor cells, HCC827: A+
CCRF-CEM; [3]
  IC50 for inhibiting the proliferation of tumor cells, CCRF-CEM: A+
Mino; [2]
  IC50 for inhibiting the proliferation of tumor cells, Mino: A+
Hep3B2.7-1; [3]
  IC50 for inhibiting the proliferation of tumor cells, Hep3B2.7-1: A+
Kasumi-1
  IC50 for inhibiting the proliferation of tumor cells, Kasumi-1: A+

## Cc1nc2c(F)cc(-c3nc(Nc4ccc(N5CCC(N(C)Cc6ccc7c(c6)CN(C6CCC(=O)NC6=O)C7=O)CC5)cn4)ncc3F)cc2n1C(C)C (centres unmarked) [GT-03639, 3-(5-(((1-(6-((5-fluoro-4-(4-fluoro-1-isopropyl-2-methyl-1H-benzo[d]imidazol-6-yl)pyrimidin-2-yl)amino)pyridin-3-yl)piperidin-4-yl)(methyl)amino)methyl)-1-oxoisoindolin-2-yl)piperidine-2,6-dione]
SU-DHL-6; [4]
  IC50 for inhibiting the proliferation of tumor cells, SU-DHL-6: A+
Mino; [4]
  IC50 for inhibiting the proliferation of tumor cells, Mino: A+

## O=C1CCC(N2Cc3cc(CN4CCN(c5cccc(-c6cnc7ccc(N8CCC[C@@H]8c8cccc(F)c8)nn67)n5)CC4)cc(F)c3C2=O)C(=O)N1 (stereo partly drawn) [GT-03867, 3-(7-fluoro-5-((4-(6-(6-((R)-2-(3-fluorophenyl)pyrrolidin-1-yl)imidazo[1,2-b]pyridazin-3-yl)pyridin-2-yl)piperazin-1-yl)methyl)-1-oxoisoindolin-2-yl)piperidine-2,6-dione]
MM.1R; Table 22, NTRK inhibitor based
  IC50: < 0.05 µM
Jurkat; Table 22, NTRK inhibitor based
  IC50: < 0.05 µM
MM.1S; [5]
  IC50: 0.05 to 0.1 µM
T47D; [6]
  IC50: 0.1 to 0.5 µM
CCRF-CEM; [7]
  IC50: < 0.05 µM
Hep3B2.7-1; [8]
  IC50: < 0.05 µM
Kasumi-1; Table 22, NTRK inhibitor based
  IC50: < 0.05 µM

## O=C1CCC(N2Cc3cc(CN4CCN(c5cccc(-c6cnn7ccc(N8CCC[C@@H]8c8cc(F)ccc8F)nc67)n5)CC4)c(F)cc3C2=O)C(=O)N1 (stereo partly drawn) [GT-04264, 3-(5-((4-(6-(5-((R)-2-(2,5-difluorophenyl)pyrrolidin-1-yl)pyrazolo[1,5-a]pyrimidin-3-yl)pyridin-2-yl)piperazin-1-yl)methyl)-6-fluoro-1-oxoisoindolin-2-yl)piperidine-2,6-dione]
MM.1R; Table 22, NTRK inhibitor based
  IC50: < 0.05 µM
Jurkat; Table 22, NTRK inhibitor based
  IC50: < 0.05 µM
MM.1S; [5]
  IC50: < 0.05 µM
T47D; [6]
  IC50: < 0.05 µM
CCRF-CEM; [7]
  IC50: < 0.05 µM
Hep3B2.7-1; [8]
  IC50: < 0.05 µM
Kasumi-1; Table 22, NTRK inhibitor based
  IC50: < 0.05 µM

## O=C(Nc1cnn2ccc(N3CCC[C@@H]3c3cc(F)ccc3F)nc12)N1CC[C@H](O)C1 [larotrectinib]
MM.1R; Table 22, given as number
  IC50: > 10 µM
Jurkat; Table 22, given as number
  IC50: > 10 µM
MM.1S; Table 22, MM.1S, given as number, read-out: IC50 inhibiting proliferation of tumor cells, MM.1S
  IC50: > 10 µM
T47D; Table 22, given as number, read-out: IC50 inhibiting proliferation of tumor cells, T47D
  IC50: > 10 µM
CCRF-CEM; Table 22, given as number, read-out: IC50 inhibiting proliferation of tumor cells, CCRF-CEM
  IC50: > 10 µM
Hep3B2.7-1; Table 22, HEP3B2.7-1, given as number, read-out: IC50 inhibiting proliferation of tumor cells, HEP3B2.7-1
  IC50: > 10 µM
Kasumi-1; Table 22, given as number
  IC50: > 10 µM
